From patent US20220033448A1, “METHODS FOR AGGREGATION OF PROTEINS” (priority 2011, published 2022) come the findings set out here.

Where two headings read alike, the source gives them in different places. No end group written: not given here.

Series [1] relates to human erythrocytes. The class given is cell-based. The text has this: The detergent Tween was used as a positive control, causing 100% lysis of RBCs.
In series [2] the test system is MRSA strain 326.
Series [3] can be described thus: Preliminary in vivo toxicity in mice. As to conditions: Swiss mice. Here is the method: Further, three groups of 6-weeks old female Swiss mice were injected with increasing C30 doses over a period of 1 week. C30 was dissolved in physiological water and 1 injection per day was given. In the first 3 days injections in the tail vein were given (150 μl per injection) and during the remaining 2 days IP injections (300 μl per injection). The primary dose started from 3 mg/kg and each day the dose was increased gradually. The control group received the same volume of saline. The highest dose analyzed for IV injections was 50 mg/kg and for the IP injections 100 mg/kg. […] Organs of treated and control mice were subjected to further histological analysis. After all 5 injections were given, blood was taken by retro-orbital puncture and analyzed.

The subject of series [4] is S. aureus.
Procedure: (§1) Bacteria were grown in a shaking incubator at 37° C. and 160rpm in 50 ml BHI , using individual colonies retrieved from a fresh overnight TSA-sheep blood plate. The cultures were grown to a density of approximately 1×10^8cells/ml and then diluted to 5×10^5 cells/ml in CAMHB (Mc Farland 0.5). Each well contained 100p.I (50p.I of peptide containing MHB plus 50 μl inoculum). The final cell density was 1×10^5 to 5×10^5/ml. After addition of the cell suspension, plates were incubated at 37° C. for 18 to 24 hours. The optical density at 590 nm (OD590) of each well was measured after 5 seconds of shaking the plate using Perkin Elmer spectrophotometer (1420 Multilabel Counter Vicotr 3). […] Each well, where no growth was observed, was also plated on TSA-sheep blood agar plates, incubated at 37° C. overnight and visually inspected.
(§2) A microbroth dilution method was used with twofold serial dilutions in CAMHB (according to EMEA guidelines) was used for screening of peptide activity, with concentrations ranging from 0.3 μg/mIto 200 μg/ml.
The test system of series [5] is B. cereus. As to conditions: planktonic, 18 hours.
Procedure: as §1, §2

By MIC is commonly meant the lowest concentration found to suppress growth. Low readings indicate a more susceptible organism, high ones a less susceptible organism.

With RILLGLIRRGSRILLGLIRR [C30], the “HD50 (concentration at which 50% of red blood cells are lysed)” value in series [1] lay in the range of 25 to 50 µg/mL. In series [2] (31 days, concentration in medium adjusted to MIC of previous day), the “maximal increase of the MIC” value is reported as no more than 4 fold. Besides, the “MIC on the last day of the experiment” value in series [2] (day 31) is 12,5 μg/ml. The side effects result in series [3] (IP injection, highest dose of 100 mg/kg) is recorded as “developed a subcutaneous lesion bump”. For the same sequence, the “mortality and side effects” value in series [3] (IV injections, increasing doses from 3 mg/kg, highest dose 50 mg/kg) was “no signs of mortality nor any other visible side effects”. Also, the blood analysis entry in series [3] (after all 5 injections, retro-orbital puncture) was “No abnormalities were found in the blood”. In addition, the minimal inhibitory concentration (MIC) in series [4] was 6 µg/mL; in series [4] (MRSA 115, planktonic, 18 hours), “MRSA 115: 6 μg/ml”; in series [4] (MRSA 165, planktonic, 18 hours) it was “MRSA 165: 3 μg/ml”; in series [4] (MRSA 204, planktonic, 18 hours), “MRSA 204: 6 μg/ml”; in series [4] (MRSA 274, planktonic, 18 hours), “MRSA 274: 3 μg/ml”; in series [4] (MRSA 351, planktonic, 18 hours) it was “MRSA 351: 3 μg/ml”. The minimum inhibitory concentration (MIC) entry in series [4] (MRSA 418, planktonic, 18 hours) is reported as “MRSA 418: 6 μg/ml”; in series [4] (MRSA 651, planktonic, 18 hours) it was “MRSA 651: 3 μg/ml”; in series [4] (S. aureus ATCC29213, planktonic, 18 hours), “S. aureus ATCC29213: 3 μg/ml”; in series [5] (Bacillus cereus 1), “Bacillus cereus 1: 6 μg/ml”; in series [5] (Bacillus cereus 2) it was “Bacillus cereus 2: 6 μg/ml”. Also, the “MIC in presence of 50% FBS” value in series [4] is 50 µg/mL.
